BindingDB's records for doi:10.1016/s0960-894x(98)00660-x (Smithkline Beecham Research Unit, 1999)
pIC50: −log10 of the molar value.

These molecules were tested against V-type proton ATPase (Gallus gallus) (assay: Compound was measured for the inhibition of bafilomycin-sensitive ATPase activity in partially purified membrane preparation from chicken osteoclast (cOC)).
Work on CO/C(=C/C=C/c1cc2cc(Cl)c(Cl)cc2[nH]1)C(=O)NC1CC(C)(C)N(C)C(C)(C)C1 [TCMDC-139097] yielded a pIC50 of 5.63.
Molecule CO/C(=C\C=C\c1cc2cc(Cl)c(Cl)cc2[nH]1)C(=O)NC1CC(C)(C)N(C)C(C)(C)C1 [(2Z,4E)-5-(5,6-Dichloro-1H-indol-2-yl)-2-methoxy-penta-2,4-dienoic acid (1,2,2,6,6-pentamethyl-piperidin-4-yl)-amide] has a pIC50 of 7.57.
CO/C(=C\C=C/c1cc2cc(Cl)c(Cl)cc2[nH]1)C(=O)NC1CC(C)(C)N(C)C(C)(C)C1 [TCMDC-139106] gave a pIC50 of 6.18.
